How the values were obtained:
Egr-1 mRNA = Egr-1 mRNA expression in rat glomerular mesangial cells after FCS or AII stimulus (RT-PCR); format: cell-based; settings: 30 minutes after FCS (20%) stimulus; Candesartan 10^−5 M added 5 minutes before; relative value, before stimulus = 1; n = 3, Mean
Protocol: Glomerular mesangial cells ([…] 7) isolated and cultivated from a male Sprague-Dawley rat (SD rat, Japan Crea) of the age of 4 weeks were cultivated in DMEM medium containing 20% fetal calf serum (FCS) for 4 days, and then the cells were cultivated in DMEM containing 0.2% bovine serum albumin for 3 days. To the cells after cultivation, FCS (20%) or angiotensin II (AII) (10^-6M) was added, and then the resulting mixture was reacted at 37° C. for 30 minutes. The AII type I receptor antagonist Candesartan of 10^-5 M as the final concentration was added to the medium 5 minutes prior to the stimulation of FCS or AII. Thirty minutes after FCS or AII stimulus, total RNA was extracted. The primers and fluorescent probe were prepared on the basis of the mRNA sequence previously reported, and subsequently the level of Egr-1 mRNA expression was determined using ABI PRISM 7700 (Applied Biosystems) by the real time quantitative RT-PCR method.

[1] = test system: Egr-1, TGF-β1, PDGF-B, fibronectin and α1 (I) collagen mRNA in the kidney of Zucker Fatty Rats; experiment: mRNA expression levels in the kidney of Zucker fatty rats (real time quantitative RT-PCR); format: in vivo, rat
Protocol: (§1) To the control group and the normal control group, i.e., male Zucker lean rats (ZL rat, Charles River Japan Inc.) with the same age, 0.5% methylcellulose 100 cP (Vehicle) was administered once per day everyday. Eight weeks after administration, urine was accumulated for 24 hours, and then the urinary albumin excretion was determined using A/G B Test Wako (Wako Pure Chemical Industries). Nine weeks after administration, the kidneys were collected and stored at −80° C., and subsequently the kidneys were crushed to extract the total RNA. The primers and fluorescent probe were prepared on the basis of the mRNA sequence previously reported, and then the amount of each of individual mRNAs was determined using ABI PRISM 7700 (Applied Biosystems) by the real time quantitative RT-PCR method.

male Zucker fatty rat = experiment: Urinary albumin excretion in Zucker fatty rats; format: in vivo
Protocol: as §1

tissue factor mRNA = experiment: Tissue factor mRNA expression in rat glomerular mesangial cells after bFGF stimulus (quantitative RT-PCR); format: cell-based; settings: ODN 20 μM for 24 hours, two hours after bFGF (3 ng/ml) stimulus, relative value, control = 1, n = 2-3, Mean
From the text: (§2) Glomerular mesangial cells (passege 4-5) isolated and cultivated from a male SD rat with 4 weeks age were cultivated for 3 to 4 days in DMEM medium containing 20% fetal bovine serum to sub-confluence, and the medium was changed to DMEM containing a 0.2% bovine serum albumin and then the resulting material was subjected to serum starvation. Forty-eight hours after initiation of the serum starvation, Egr-1 AS-ODN (SEQ ID NO: 7) or a Control-ODN (the scrambled ODNs that were matched with the AS-ODN in size and the number of bases, both synthesized by BIOGNOSTIK Corp.) with a concentration of 20 μM was added to the medium and the resultant material was allowed to stand in a CO2 incubator for 24 hours. Thereafter the material was stimulated with a basic fibroblast growth factor (bFGF) (3 ng/ml), and then was reacted at 37° C. for 1 to 2 hours. A protein was extracted from the cell one hour after bFGF stimulus, and total RNA was extracted from a cell two hours after bFGF stimulus. […] The brightness accumulation value of the band thus detected was calculated by a CS Analyzer 1.00a (ATTO). Also, the mRNA expression level of the tissue factor was determined by making the primer and fluorescent probe on the basis of the mRNA sequence previously reported and by using ABI PRISM 7700 (Applied Biosystems) by means of the quantitative RT-PCR method.

[2] = test system: Glomerular mesangial cells; experiment: Cytotoxicity by transfection in rat glomerular mesangial cells; format: cell-based; settings: ODN 20 μM
Egr-1 protein = Egr-1 protein expression in rat glomerular mesangial cells after bFGF stimulus (Western blotting); format: cell-based; settings: ODN 20 μM for 24 hours, one hour after bFGF (3 ng/ml) stimulus, relative value, control = 1, n = 2-3, Mean
From the text: as §2

human Egr-1 (human) = human Egr-1 (human) (UniProt P18146); experiment: plate assay: Egr-1 from HEK293 lysate captured on biotinylated double-stranded DNA with the Egr-1 binding sequence (SEQ ID NO: 10) on a streptavidin plate, detected with anti-Egr-1 polyclonal antibody and HRP anti-rabbit IgG
[3] = ZF rat, nine weeks after administration, relative value, ZL rat = 1, n = 8-9, Mean

Egr-1 protein, sequence (P08154 whole entry): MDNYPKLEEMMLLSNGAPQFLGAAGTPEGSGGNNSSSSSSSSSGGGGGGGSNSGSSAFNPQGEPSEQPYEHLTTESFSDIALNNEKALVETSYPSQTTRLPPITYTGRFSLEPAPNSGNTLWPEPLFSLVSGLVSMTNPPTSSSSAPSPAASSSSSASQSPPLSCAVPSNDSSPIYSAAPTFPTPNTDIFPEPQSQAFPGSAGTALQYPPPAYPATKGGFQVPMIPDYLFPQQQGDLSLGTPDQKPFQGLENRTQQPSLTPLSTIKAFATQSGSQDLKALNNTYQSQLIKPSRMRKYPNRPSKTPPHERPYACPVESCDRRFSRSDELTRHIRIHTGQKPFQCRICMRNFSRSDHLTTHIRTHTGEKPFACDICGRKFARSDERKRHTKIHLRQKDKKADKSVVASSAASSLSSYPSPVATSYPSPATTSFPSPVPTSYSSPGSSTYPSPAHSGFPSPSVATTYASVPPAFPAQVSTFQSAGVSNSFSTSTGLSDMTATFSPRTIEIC
human Egr-1 (human), sequence (P18146 whole entry): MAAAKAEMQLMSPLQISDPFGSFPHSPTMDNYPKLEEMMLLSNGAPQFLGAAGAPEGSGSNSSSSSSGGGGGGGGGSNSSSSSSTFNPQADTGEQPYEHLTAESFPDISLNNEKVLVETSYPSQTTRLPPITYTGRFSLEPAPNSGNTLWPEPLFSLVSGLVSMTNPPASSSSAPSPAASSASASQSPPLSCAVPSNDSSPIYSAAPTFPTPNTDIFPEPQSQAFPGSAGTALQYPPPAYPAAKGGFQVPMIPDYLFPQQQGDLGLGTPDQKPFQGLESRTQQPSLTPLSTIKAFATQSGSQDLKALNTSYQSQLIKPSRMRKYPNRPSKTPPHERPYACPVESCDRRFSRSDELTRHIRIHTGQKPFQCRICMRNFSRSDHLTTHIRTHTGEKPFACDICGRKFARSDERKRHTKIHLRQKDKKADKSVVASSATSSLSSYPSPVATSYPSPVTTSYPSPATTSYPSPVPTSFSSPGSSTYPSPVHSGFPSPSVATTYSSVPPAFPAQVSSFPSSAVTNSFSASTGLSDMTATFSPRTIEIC

In the case of `CCOc1nc2cccc(C(=O)O)c2n1Cc1ccc(-c2ccccc2-c2nnn[nH]2)cc1` [Candesartan], the “Egr-1 mRNA expression level” value (Egr-1 mRNA) is reported as 18.4, the “Egr-1 mRNA expression level in the kidney” value [1, 3] is reported as 1.3 and the “Fibronectin mRNA expression level in the kidney” value [1, 3] is reported as 1.1. The “PDGF-B mRNA expression level in the kidney” value [1, 3] was 1.0, the “TGF-β1 mRNA expression level in the kidney” value [1, 3] was 1.2 and the “α1 (I) collagen mRNA expression level in the kidney” value [1, 3] was 1.6.

`CCOc1nc2cccc(C(=O)OC(C)OC(=O)OC3CCCCC3)c2n1Cc1ccc(-c2ccccc2-c2nnn[nH]2)cc1` (stereo not drawn) [Candesartan cilexetil] was tested, and the Urinary albumin excretion (male Zucker fatty rat; ZF rat, orally once per day, eight weeks after administration, 24 hours urine, n = 8-9, Mean) was 61.7 mg/day, the “Increase in the urinary albumin excretion (in words)” value (male Zucker fatty rat; Zucker fatty rat, oral administration once per day) was “inhibition of an increase” and the “Increase in the level of Egr-1, TGF-β1, PDGF-B, fibronectin and α1(I) collagen mRNA expression in the kidney (in words)” value ([1]; Zucker fatty rat, oral administration once per day for 9 weeks) was “inhibits the increase”.

For “AS-ODN: Egr-1 antisense oligodeoxynucleotide (SEQ ID NO: 7), synthesized by BIOGNOSTIK Corp. (antisense GCGGGGTGCAGGGGCACACT; DNA, backbone and methylation of C not given here)”, the “Tissue factor mRNA expression” value (tissue factor mRNA) was 1.1, the “Tissue factor mRNA expression” value (tissue factor mRNA; listed as Egr-1 AS-ODN) was “almost completely suppressed” and the Cytotoxicity by transfection [2] was “not observed”. For the same molecule, the Egr-1 protein expression (Egr-1 protein) was 2.0 and the Egr-1 protein expression (Egr-1 protein; listed as Egr-1 AS-ODN) was “suppressed”.

Work on “anti-Egr-1 antigen (rabbit, polyclonal antibody, SANTA CRUZ Corp., sc-189)” yielded an absorbance at 450 nm (absorbance (450 nm)) (human Egr-1 (human)) of 0.751.

— patent US20050069948A1, “Screening method” (priority 2002, published 2005)
